Measured values from patent US20090048269A1 (AstraZeneca AB, priority 2007, published 2009).

biological target: T1, human ALK5 (Homo sapiens, UniProt P36897); experiment: ALK5 Enzyme Assay 2 (fluorescence polarisation probe displacement); assay type: binding; design: 6His tagged human ALK5 (residues162-503) was grown and purified from insect cells; 6His; made in house; host or cells: insect cells; details: read-out: EAA2: activity (μM) using Enzyme Assay 2
T1 sequence (P36897 162-503): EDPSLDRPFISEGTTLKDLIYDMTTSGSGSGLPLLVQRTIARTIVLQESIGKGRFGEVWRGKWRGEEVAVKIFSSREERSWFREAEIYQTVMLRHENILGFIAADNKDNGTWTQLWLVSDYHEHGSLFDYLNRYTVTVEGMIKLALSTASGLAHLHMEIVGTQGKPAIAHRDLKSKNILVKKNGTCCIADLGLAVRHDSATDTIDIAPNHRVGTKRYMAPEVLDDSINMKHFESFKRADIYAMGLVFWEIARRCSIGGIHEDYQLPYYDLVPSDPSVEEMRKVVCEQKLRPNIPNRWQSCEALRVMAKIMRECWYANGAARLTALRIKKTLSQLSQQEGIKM
Outline: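 Recombinant ALK5 (3 μg/mL) incubated with test compound in 50 mM HEPES pH7.4, 10 mM MgCl2, 1 mM DTT, 0.01% CHAPS. Displacement of a fluorescent quinazoline-based ALK5 probe (50 nM final) in presence of 1 μM ATP read by fluorescence polarisation.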

| SMILES | IC50 |
| --- | --- |
| Cc1ccc(Oc2ccnc(Nc3ccc(S(=O)(=O)N4CCCCC4)cc3)c2)c(C)n1 [Example 115, 4-(2,6-Dimethylpyridin-3-yl)oxy-N-(4-piperidin-1-ylsulfonyl-phenyl)pyridin-2-amine] | 5.41 µM |
| Cc1ccc(Oc2ccnc(Nc3ccccn3)c2)c(-c2ccccc2)n1 [Example 150, 4-(6-Methyl-2-phenylpyridin-3-yl)oxy-N-pyridin-2-ylpyridin-2-amine] | 0.0047 µM |
| Cc1ccc(Oc2ccnc(Nc3ccc(C(=O)N(C)C)cc3)c2)c(C)n1 [Example 121, 4-{[4-(2,6-Dimethylpyridin-3-yl)oxypyridin-2-yl]amino}-N,N-dimethylbenzamide] | 0.088 µM |
| COCC(C)NS(=O)(=O)c1ccc(Nc2cc(Oc3ccc(C)nc3C)ccn2)cc1 (stereo not shown) [Example 118, 4-{[4-(2,6-Dimethylpyridin-3-yl)oxypyridin-2-yl]amino}-N-(1-methoxypropan-2-yl)benzenesulfonamide] | 0.155 µM |
| CC(=O)NS(=O)(=O)c1ccc(Nc2cc(Oc3ccc(C)nc3C)ccn2)cc1 [Example 107, N-{4-[4-(2,6-Dimethylpyridin-3-yloxy)pyridin-2-ylamino]phenyl-sulfonyl}acetamide] | 0.592 µM |
| Cc1ccc(Oc2ccnc(Nc3cccc(C(=O)N4CCC4)c3)c2)c(C)n1 [Example 61, Azetidin-1-yl-(3-{[4-(2,6-dimethylpyridin-3-yl)oxypyridin-2-yl]-amino}phenyl)methanone] | 0.0227 µM |
| CNC(=O)CN1CCN(Cc2cccc(Nc3cc(Oc4ccc(C)nc4C)ccn3)c2)CC1 [Example 191] | 0.0213 µM |
| Cc1ccc(Oc2ccnc(Nc3ccc(CC#N)cc3)c2)c(-c2ccco2)n1 [Example 159, 2-[4-({4-[2-(Furan-2-yl)-6-methylpyridin-3-yl]oxypyridin-2-yl}-amino)phenyl]acetonitrile] | 0.00299 µM |
| Cc1ccc(Oc2ccnc(Nc3cccc(CN4CCN(C(=O)CC(N)=O)CC4)c3)c2)c(C)n1 [Example 187, 3-{4-[(3-{[4-(2,6-Dimethylpyridin-3-yl)oxypyridin-2-yl]amino}phenyl)methyl]piperazin-1-yl}-3-oxopropanamide] | 0.0232 µM |
| Cc1cc(Oc2ccnc(Nc3ccc(C(=O)NCCCN)cc3)c2)c(-c2ccccn2)nc1C [Example 199, N-(3-Aminopropyl)-4-{[4-(5,6-dimethyl-2-pyridin-2-ylpyridin-3-yl)oxypyridin-2-yl]amino}benzamide] | 0.00145 µM |
| Cc1ccc(Oc2ccnc(Nc3cccc(C(=O)N4CCN(CC(N)=O)CC4)c3)c2)c(C)n1 [Example 69, 2-[4-(3-{[4-(2,6-Dimethylpyridin-3-yl)oxypyridin-2-yl]amino}-benzoyl)piperazin-1-yl]acetamide] | 0.0827 µM |
| CC(=O)Nc1cc(Nc2cc(Oc3ccc(C)nc3C)ccn2)ccc1C [Example 127, N-(5-{[4-(2,6-Dimethylpyridin-3-yl)oxypyridin-2-yl]amino}-2-methylphenyl)acetamide] | 0.0145 µM |
| Cc1ccc(Oc2ccnc(Nc3ccccc3)c2)c(C(=O)NCC2CC2)n1 [Example 93, 3-(2-Anilinopyridin-4-yl)oxy-N-(cyclopropylmethyl)-6-methyl-pyridine-2-carboxamide] | 0.154 µM |
| Cc1ccc(Oc2ccnc(Nc3ccc(S(=O)(=O)NCCN4CCOCC4)cc3)c2)c(C)n1 [Example 131, 4-[4-(2,6-Dimethylpyridin-3-yloxy)pyridin-2-ylamino]-N-(2-morpholinoethyl)benzenesulfonamide] | 0.256 µM |
| Cc1ccc(Oc2ccnc(Nc3ccc(C#N)cc3)c2)c(C)n1 [Example 89, 4-{[4-(2,6-Dimethylpyridin-3-yl)oxypyridin-2-yl]amino}-benzonitrile] | 0.346 µM |
| Cc1ccc(Oc2ccnc(Nc3cccc(C(=O)N4CC[C@H](S(C)(=O)=O)C4)c3)c2)c(C)n1 (single isomer, unassigned) [Example 138] | 0.0143 µM |
| Cc1ccc(Oc2ccnc(Nc3cccc(C(=O)O)c3)c2)c(C)n1 [Example 210, Sodium 3-{[4-(2,6-dimethylpyridin-3-yl)oxypyridin-2-yl]amino}benzoate] | 0.0392 µM |
| CCCc1nc(C)ccc1Oc1ccnc(Nc2cc(OC)c(OC)c(OC)c2)c1 [Example 166, 4-(6-Methyl-2-propylpyridin-3-yloxy)-N-(3,4,5-trimethoxy-phenyl)pyridin-2-amine] | 0.597 µM |
| COc1ccc(Nc2cc(Oc3ccc(C)nc3C)ccn2)cc1 [Example 90, 4-(2,6-Dimethylpyridin-3-yl)oxy-N-(4-methoxyphenyl)pyridin-2-amine] | 0.135 µM |

| SMILES | IC50 |
| --- | --- |
| Cc1ccc(Oc2ccnc(Nc3cccc(CN4CCN(C(=O)NC56CC7CC(CC(C7)C5)C6)CC4)c3)c2)c(C)n1 [Example 177] | 0.0469 µM |
| Cc1ccc(Oc2ccnc(Nc3ccccc3)c2)c(C(=O)NCc2ccc[nH]2)n1 [Example 94, 3-(2-Anilinopyridin-4-yl)oxy-6-methyl-N-(1H-pyrrol-2-ylmethyl)-pyridine-2-carboxamide] | 0.119 µM |
| Cc1cc(Oc2ccnc(Nc3cccc(S(N)(=O)=O)c3)c2)c(-c2ccccn2)nc1C [Example 104, 3-{[4-(5,6-Dimethyl-2-pyridin-2-ylpyridin-3-yl)oxypyridin-2-yl]-amino}benzenesulfonamide] | 0.0121 µM |
| Cc1cc(Oc2ccnc(Nc3cccc(O)c3)c2)c(-c2ccccn2)nc1C [Example 201, 3-{[4-(5,6-Dimethyl-2-pyridin-2-ylpyridin-3-yl)oxypyridin-2-yl]-amino}phenol] | 0.00393 µM |
| Cc1ccc(Oc2ccnc(Nc3ccc(CC#N)cc3)c2)c(-c2ccccc2)n1 [Example 148, 2-(4-{[4-(6-Methyl-2-phenylpyridin-3-yl)oxypyridin-2-yl]-amino}phenyl)acetonitrile] | 0.0339 µM |
| Cc1ccc(Oc2ccnc(Nc3ccc(CC#N)cc3)c2)c(-c2ccc(F)cc2)n1 [Example 155, 2-[4-({4-[2-(4-Fluorophenyl)-6-methylpyridin-3-yl]oxypyridin-2-yl}amino)phenyl]acetonitrile] | 0.0816 µM |
| Cc1cc(Oc2ccnc(Nc3cccc(C(=O)N4CCCC(C)C4)c3)c2)c(-c2ccccn2)nc1C (stereo not shown) [Example 101, (3-{[4-(5,6-Dimethyl-2-pyridin-2-ylpyridin-3-yl)oxypyridin-2-yl]-amino}phenyl)-(3-methylpiperidin-1-yl)methanone] | 0.0114 µM |
| Cc1ccc(Oc2ccnc(Nc3cccc(S(N)(=O)=O)c3)c2)c(C)n1 [Example 105, 3-{[4-(2,6-Dimethylpyridin-3-yl)oxypyridin-2-yl]amino}benzene-sulfonamide] | 0.00764 µM |
| Cc1ccc(Oc2ccnc(Nc3cccc(CN4CCN(C(C)C(N)=O)CC4)c3)c2)c(C)n1 (stereo not shown) [Example 190, 2-14-[3-({4-[(2,6-dimethylpyridin-3-yl)oxylpyridin-2-yl}amino)-benzyl]piperazin-1-yl}propanamide] | 0.0322 µM |
| Cc1ccc(Oc2ccnc(Nc3cccc(CN4CCN(CCN5CCNC5=O)CC4)c3)c2)c(C)n1 [Example 192, 1-(2-{4-[(3-{[4-(2,6-Dimethylpyridin-3-yl)oxypyridin-2-yl]-amino}phenyl)methyl]piperazin-1-yl}ethyl)imidazolidin-2-one] | 0.0155 µM |
| Cc1cc(Oc2ccnc(Nc3cccc(C(=O)N4CCC4)c3)c2)c(-c2ccccn2)nc1C [Example 98, Azetidin-1-yl-(3-{[4-(5,6-dimethyl-2-pyridin-2-ylpyridin-3-yl)-oxypyridin-2-yl]amino}phenyl)methanone] | 0.0513 µM |
| CCCCCNS(=O)(=O)c1ccc(Nc2cc(Oc3ccc(C)nc3C)ccn2)cc1 [Example 114, 4-{[4-(2,6-Dimethylpyridin-3-yl)oxypyridin-2-yl]amino}-N-pentylbenzenesulfonamide] | 3.01 µM |
| Cc1ccc(Oc2ccnc(Nc3ccc(CO)cc3)c2)c(-c2ccccn2)n1 [Example 147, (4-{[4-(6-Methyl-2-pyridin-2-ylpyridin-3-yl)oxypyridin-2-yl]-amino}phenyl)methanol] | 0.00921 µM |
| CCN(CC)S(=O)(=O)c1ccc(Nc2cc(Oc3ccc(C)nc3C)ccn2)cc1 [Example 116, 4-{[4-(2,6-Dimethylpyridin-3-yl)oxypyridin-2-yl]amino}-N,N-diethylbenzenesulfonamide] | 1.42 µM |
| Cc1cc(Oc2ccnc(Nc3ccc(C(=O)NCCCNC(=O)OC(C)(C)C)cc3)c2)c(-c2ccccn2)nc1C [Example 197, tert-Butyl N-{3-[(4-{[4-(5,6-dimethyl-2-pyridin-2-ylpyridin-3-yl)-oxypyridin-2-yl]amino}benzoyl)amino]propyl}carbamate] | 0.0061 µM |
| Cc1cc(Oc2ccnc(Nc3cccc(OCCN4CCOCC4)c3)c2)c(-c2ccccn2)nc1C [Example 79, 4-(5,6-Dimethyl-2-pyridin-2-ylpyridin-3-yl)oxy-N-[3-(2-morpholin-4-ylethoxy)phenyl]pyridin-2-amine] | 0.0396 µM |
| Cc1ccc(Oc2ccnc(Nc3ccc(S(=O)(=O)NCCn4ccnc4)cc3)c2)c(C)n1 [Example 135, 4-{[4-(2,6-Dimethylpyridin-3-yl)oxypyridin-2-yl]amino}-N-(2-imidazol-1-ylethyl)benzenesulfonamide] | 0.12 µM |
| Cc1ccc(Oc2ccnc(Nc3cccc(C(=O)N(C)C)c3)c2)c(C)n1 [Example 62, 3-{[4-(2,6-Dimethylpyridin-3-yl)oxypyridin-2-yl]amino}-N,N-dimethylbenzamide] | 0.0535 µM |
